Experiments:
Format in all cases: in vivo
ICR mice [1] = experiment: Itching induced by histamine in ICR mice, oral administration; conditions: for antipruritic effects (in words): histamine; for % Inhibition (mean ± SE): scratching frequency over 30 min, histamine 100 nmol/mouse i.d. 1 h after dosing
Excerpt: Itching Induced by Histamine in ICR Mice
It is known that the itching response induced by histamine in rodents is generally weaker than that in humans (Kuraishi et al., 1995, Eur. J. Pharmacol. 275, pp 229-233). However, it is known that uniquely, ICR mice sensitively respond to histamine, and this leads to itching response (Maekawa et al., 2000, Jpn. J. Pharmacol. 84, pp 462-466). As is widely known, histamines are representative itching mediators and obviously induce itching in human subjects (Simone et al., 1987, Somatosens. Res. 5, pp 81-92). In this experiment, ICR mice received […]. One day before the experiment, the rostral part of the skin on the back of male ICR mice (28˜32 g, 5˜8 mice/group was clipped. The mice were fasted for 18 hours before experimentation. The drug (compound 1, 0.5 ml/mouse) was dissolved in hydroxypropyl-β-cyclodextrin (HP-β-CD; Mitsubishi Ltd., Japan), and then orally administered to the mice. One hour after the administration, histamine (100 nmol/50 μl/mouse) was dissolved in a physiological saline solution and injected intradermally into the back skin of mice. Immediately after the injection, the mice were placed in a transparent cage, and then the frequency of scratching of the injected site by the hind paws was counted for 30 minutes. The frequency of scratching in test groups administered with the drug was compared to that in a control group administered with histamine alone. The decrease in the frequency of scratching in the test groups was determined as an index of inhibitory effects on itching. The decrease in the frequency of scratching was expressed as a percentage of inhibition to determine inhibitory effects of each compound on itching.

ICR mice [2] = experiment: Itching induced by compound 48/80 (C48/80) in ICR mice, intradermal administration; conditions: for inhibitory effects on itching (in words): C48/80, ICR mice; for % Inhibition (mean ± SE): scratching frequency over 60 min, C48/80 50 μg/mouse i.d., ICR mice
Excerpt: Itching Induced by Compound 48/80 (C48/80) in ICR Mice
Intradermal Administration
ICR mice suffer from itching upon administration of histamines, and C48/80 (condensation product of N-methyl-p-methoxyphenethylamine with formaldehyde, Sigma, U.S.A.) is a substance that stimulates connective tissues and skin mast cells to release mediators, such as histamines, causing itching. C48/80 causes itching when intradermally administered to humans (Rukwied et al., 2000, Br. J. Pharmacol., 142, pp 1114-1120). In this experiment, ICR mice received C48/80 to induce itching. One day before the experiment, the rostral part of the skin on the back of male ICR mice (28˜32 g, 4˜11 mice/group) was clipped. After the drug (compound 1, 50 μl/mouse) was dissolved in hydroxypropyl-β-cyclodextrin (HP-β-CD; Mitsubishi Ltd., Japan) and C48/80 (50 μg/50 μl/mouse) was dissolved in a physiological saline solution, the solutions were simultaneously injected intradermally into the back skin of mice. Immediately after the injection, the mice were placed in a transparent cage and then the frequency of scratching of the injected site by the hind paws was counted for 60 minutes. The frequency of scratching in test groups administered with the drug was compared to that in a control group administered with C48/80 alone. The decrease in the frequency of scratching in the test groups was determined as an index of inhibitory effects on itching. The decrease in the frequency of scratching was expressed as a percentage of inhibition to determine inhibitory effects of each compound on itching.

BALB/C mice = experiment: Itching induced by compound 48/80 (C48/80) in BALB/C mice, oral administration; conditions: for % Inhibition (mean ± SE): scratching frequency over 30 min, C48/80 1 h after dosing, BALB/C mice; for inhibitory effects on itching (in words): C48/80, BALB/C mice
Excerpt: Itching Induced by Compound 48/80 (C48/80) in BALB/C Mice
The frequency of scratching induced by an itching-inducing substance varies depending on mouse strain. For example, it was reported that BALB/C mice are less sensitive to histamines and serotonin than ICR mice (Inagaki et al., 2001, Skin Pharmacol. Appl. Skin Physiol., 14, pp 87-96). […] In this experiment, BALB/C mice received C48/80 to induce itching. One day before the experiment, the rostral part of the skin on the back of BALB/C mice (19˜21 g, 6˜12 mice/group) was clipped. After compound 1 was dissolved in HP-β-CD, and compounds 2 and 3 were dissolved in a physiological saline solution containing 10% ethanol and 10% Tween 80, the solutions were orally administered (10 ml/kg) to the mice. One hour after the administration, C48/80 (50 μg/50 μl/mouse) was dissolved in a physiological saline solution and injected intradermally into the back skin of mice. Immediately after the injection, the mice were housed in a transparent cage and then the frequency of scratching of the injected site by the hind paws was counted for 30 minutes. The frequency of scratching in test groups administered with the drugs was compared to that in a control group administered with C48/80 alone. The decrease in the frequency of scratching in the test groups was determined as an index of inhibitory effects on itching. The decrease in the frequency of scratching was expressed as a percentage of inhibition to determine inhibitory effects of each compound on itching.

ICR mice [3] = experiment: Inhibition of skin irritation induced by tacrolimus in ICR mice; conditions: intradermal; for % Inhibition (mean ± SE): scratching frequency over 30 min, tacrolimus 50 μg/mouse i.d.
Excerpt: Inhibition of Skin Irritation Induced by Tacrolimus in ICR Mice
Subcutaneous Administration
Tacrolimus is an immunosuppressant widely used in liver and renal transplantation (Lawrence, 1998, Dermatol. Ther., 5, pp 74-84). Tacrolimus is currently used in the form of ointment for treating skin diseases, such as atopic dermatitis (Wollenberg et al., 2001, J. Allergy. Clin. Immunol., 107, pp 519-525), psoriasis (Nasr, 2000, Clin. Exp. Dermatol., 25, pp 250-254), allergic contact dermatitis (Lauerma et al., 1992, Lancet, 340, p 556), and the like. However, it was reported that tacrolimus enhances irritation in human models with irritant contact dermatitis (Fuchs et al., 2002, Contact dermatitis, 46, pp 290-294). It was reported that tacrolimus causes side effects, such as skin irritation, itching and erythema, in its initial stage of use (Gupta et al., 2002, JEADV, 16, pp 100-114; Gupta and Chow, 2003, JEADV, 17, pp 493-503). No experimental model of skin irritation by tacrolimus in animal experiments is currently known. Accordingly, tacrolimus as a skin-irritant substance was directly injected to ICR mice by intradermal injection, and then scratching behavior of the mice was observed. One day before the experiment, the rostral part of the skin on the back male ICR mice (30˜33 g, 10 mice/group) was clipped. After the drug (compound 1, 50 μl/mouse) was dissolved in 28% hydroxypropyl-β-cyclodextrin (HP-β-CD; Mitsubishi Ltd., Japan) and tacrolimus (50 μg/50 μl/mouse, Cipla, India) was dissolved in a physiological saline solution containing 5% ethanol and 5% Tween 80, the solutions were simultaneously injected intradermally into the back skin of mice. Immediately after the injection, the mice were placed in a transparent cage and then the frequency of scratching of the injected site by the hind paws was counted for 30 minutes. The frequency of scratching in test groups administered with the drug was compared to that in a group administered with tacrolimus alone. […] The decrease in the frequency of scratching was expressed as a percentage of inhibition to determine inhibitory effects of each compound on skin irritation.

[4] = system: New Zealand white rabbits; experiment: Inhibition of skin irritation induced by retinoic acid in New Zealand white rabbits, topical administration
Excerpt: Inhibition of Skin Irritation Induced by Retinoic Acid in New Zealand White Rabbits
However, it is known that retinoic acid causes irritation in its initial stage of use and further causes side effects, such as skin erythema and edema, when topically applied to the skin (Varani et al., 2003, Arch. Dermatol. Res., 295, pp 255-262). A number of attempts to reduce the skin irritation induced by retinoic acid have been made in many directions (Kim et al., 2003, Toxicol. Letters., 146, pp 65-73). […] In this experiment, New Zealand white rabbits received retinoic acid to cause skin irritation. One day before the experiment, hairs around the back of four male New Zealand white rabbits (2.0˜2.5 kg) were shaved. Four application sites, which are symmetrical by two (i.e. right upper-site-left upper site and right lower site-left lower site), were marked at the shaved back of each rabbit. 100 μl of 0.025% retinoic acid (Sigma, U.S.A.) was topically applied to all four-application sites. 30 minutes after the application, the two sites marked at the right were treated with the drug (compound 1, 1%/100 μl/each application site), and the two sites marked at the left were treated with a solvent (100 μl/each application site) alone. At this time, retinoic acid and the drug were dissolved in a mixed solution of PEG 400 and ethanol (7:3), and then topically applied twice daily for four consecutive days. On the fifth day, the application sites were visually observed to evaluate the degree of skin irritation. The degree of skin irritation was expressed in a cumulative irritation index. […] The cumulative irritation index was judged based on occurrence of erythema, and scored in accordance with the following criteria: Occurrence of no erythema (0), occurrence of slightly visible erythema (1), occurrence of distinct erythema (2), occurrence of distinct scarlet erythema (3), and occurrence of distinct crimson erythema and scaling (4).

SMILES | antipruritic effects (in words) (ICR mice [1]) | % Inhibition (mean ± SE) (ICR mice [1]; dose 10 mg/mouse) | inhibitory effects on itching (in words) (ICR mice [2]) | % Inhibition (mean ± SE) (ICR mice [2]; dose 0.3 mg/mouse) | % Inhibition (mean ± SE) (BALB/C mice; dose 3 mg) | % Inhibition (mean ± SE) (BALB/C mice; dose 10 mg) | % Inhibition (mean ± SE) (BALB/C mice; dose 30 mg) | inhibitory effects on itching (in words) (BALB/C mice) | further results
CN1CCCC(n2nc(Cc3ccc(Cl)cc3)c3ccccc3c2=O)CC1 (centres unmarked) [Azelastine chloride, reference compound] | potent antipruritic effects in a dose-dependent manner | 91.7 ± 6.8% |  |  |  |  |  |  | % Inhibition (mean ± SE) (ICR mice [1]; dose 1 mg/mouse): 63.7 ± 26.6%
CC(C)(C)c1ccc(CNC(=S)NCc2ccc(NS(C)(=O)=O)c(F)c2)cc1 [Compound 1, 1-(4-t-butylbenzyl)-3-(3-fluoro-4-methanesulfonylaminobenzyl)thiourea] | potent anti-pruritic effects in a dose-dependent manner | 39.8 ± 18.1% | potent antipruritic effects in a dose-dependent manner | 44.11 ± 10.36% | −22.90 ± 13.19% | 42.24 ± 24.48% | 42.97 ± 7.13% |  | % Inhibition (mean ± SE) (ICR mice [2]; dose 0.03 mg/mouse): −6.51 ± 17.39%; % Inhibition (mean ± SE) (ICR mice [2]; dose 0.1 mg/mouse): 36.96 ± 13.44%; % Inhibition (mean ± SE) (ICR mice [2]; dose 1 mg/mouse): 69.03 ± 7.76%; % Inhibition (mean ± SE) (BALB/C mice; dose 100 mg): 54.11 ± 18.50%; % Inhibition (mean ± SE) (ICR mice [1]; dose 30 mg/mouse): 46.7 ± 24.0%; % Inhibition (mean ± SE) (ICR mice [1]; dose 100 mg/mouse): 75.8 ± 26.9%; % Inhibition (mean ± SE) (ICR mice [3]; dose 0.1 mg/mouse): 33.74 ± 37.73%; % Inhibition (mean ± SE) (ICR mice [3]; dose 0.3 mg/mouse): 52.03 ± 24.14%; % Inhibition (mean ± SE) (ICR mice [3]; dose 1 mg/mouse): 106.91 ± 30.13%; inhibitory effects on skin irritation (in words) (ICR mice [3]; tacrolimus): inhibitory effects on skin irritation in a dose-dependent manner; % Inhibition (mean) ([4]; decrease in cumulative irritation index vs retinoic acid + solvent, compound 1%, 100 μl/application site, topical, rabbits): 40%; Cumulative irritation index (mean ± SE) ([4]; erythema score 0-4 on fifth day, retinoic acid 0.025% + compound 1%, 100 μl/application site, topical twice daily for four days, rabbits): 1.88 ± 0.45; inhibitory effects on skin irritation (in words) ([4]; retinoic acid, New Zealand white rabbits, topical): inhibitory effects on skin irritation
CC(C)(C)c1ccc(CNC(=S)NCc2ccc(NS(C)(=O)=O)c(Cl)c2)cc1 [Compound 2, 1-(4-t-butylbenzyl)-3-(3-chloro-4-methanesulfonylaminobenzyl)thiourea] |  |  |  |  | 0.89 ± 7.23% | 7.42 ± 10.43% | 44.53 ± 11.07% |  | 
Cc1cc(CNC(=S)NCc2ccc(C(C)(C)C)cc2)ccc1NS(C)(=O)=O [Compound 3, 1-(4-t-butylbenzyl)-3-(3-methyl-4-methanesulfonylaminobenzyl)thiourea] |  |  |  |  | 8.21 ± 5.82% | 11.78 ± 15.26% | 38.76 ± 7.77% |  | 
CN1CCC(=C2c3ccccc3CC(=O)c3sccc32)CC1 [Ketotifen, ketotifen, reference compound] |  |  |  |  |  | −24.91 ± 15.09% |  | no inhibitory effects on itching | 
CN(C)CCC(c1ccc(Cl)cc1)c1ccccn1 (centres unmarked) [chlorpheniramine, reference compound] |  |  | no inhibitory effects on itching | −77.61 ± 70.54% | −22.90 ± 28.21% |  |  | no inhibitory effects on itching | 
